From article PMC4145316, “Cytotoxic and Apoptosis-Inducing Activity of Triterpene Glycosides from Holothuria scabra and Cucumaria frondosa against HepG2 Cells” (Marine Drugs, 2014)

Tests used:
[1] = test system: human gastric cancer MKN-45 cells; details: read-out: IC50 against MKN-45 cells; cited from earlier work
[2] = test system: human hepatoma (HepG2) cells; assay: MTT cytotoxicity assay, HepG2 cells; format: cell-based; details: means ± SD (n = 3)
Experimental: (§1) Human hepatoma (HepG2), human cervical cancer (HeLa), human leukemia (K562) and human liver (HL-7702) cells were obtained by Shanghai Institute of Biochemistry and Cell Biology, and maintained in the logarithmic phase of growth in RPMI-1640 complete medium supplemented with 2 mM L-glutamine (Sigma Chemical Co., Saint Louis, MO, USA), 100 IU/mL penicillin, 100 μg/mL streptomycin and 10% FCS at 37 °C under humidified air with 5% CO2.
(§2) The effect of compounds 1–13 on the viability of HepG2, HeLa, K562 and HL-7702 cells was determined by MIT assay as described previously. Briefly, the tumor and normal cells were seeded at 1 × 10^4 cells/well in a 96-well microtiter plate and incubated at 37 °C in a humidified atmosphere with 5% CO2. After 24 h, compounds 1–13, the positive drug CDDP or RPMI-1640 medium were added into each well, and the plates were incubated at 37 °C for the indicated time. Each concentration was repeated four wells. 50 μL of MTT solution (2 mg/mL) was added to each well 4 h before incubation end, and incubated further for 4 h. The plates were centrifuged (1400× g, 5 min) and the untransformed MTT was removed carefully by pipetting. To each well, 150 μL of DMSO was added and the absorbance was evaluated in an ELISA reader at 570 nm after 15 min. The inhibitory rates and 50% inhibitory concentrations (IC50) values towards cell viability were calculated by NDST software. Each test was performed in triplicate.

[3] = test system: human leukemia (K562) cells; assay: MTT cytotoxicity assay, K562 cells; format: cell-based; details: means ± SD (n = 3)
Experimental: as §1, §2

[4] = test system: human liver (HL-7702) cells; assay: MTT cytotoxicity assay, normal HL-7702 cells; format: cell-based; details: for Ratio (HL-7702/HepG2): ratio of IC50 values against HL-7702 and HepG2 cells, selective cytotoxicity
Experimental: as §1, §2

[5] = test system: Caspase-3, Caspase-8 and Caspase-9 mRNA in HepG2 cells; assay: RT-PCR, Caspase-3, Caspase-8 and Caspase-9 mRNA expression; format: cell-based, human
Text: Caspases play an important role in cell apoptosis. Activation of caspase appears to be directly responsible for many molecular and structural changes in apoptosis. The caspase-dependent process is associated with two pathways of anticancer drug-induced apoptosis, the extrinsic (death receptor) pathway and the intrinsic (mitochondrial) pathway. The extrinsic pathway is initiated by death ligands, such as FasL, leading to cleavage of pro-Caspase-8 to its active form, which subsequently activates downstream effectors such as Caspase-3. The intrinsic pathway is characterized by mitochondria dysfunction, resulting in the reduction of mitochondrial transmembrane potentials, mitochondrial translocation of the pro-apoptotic Bax protein, cytochrome c release and activation of downstream effector caspases such as Caspase-9 [39, 40]. Caspase-3 is one of the downstream effectors of the caspase family, and is considered to involve both the mitochondrial apoptotic pathway and the death receptor pathway. […]
Figure 6 Effects of 1 on the mRNA expression level of Caspase-3, Caspase-8 and Caspase-9 in HepG2 cells. […] The mRNA expression levels of β-actin, Caspase-3, Caspase-8 and Caspase-9 were detected by RT-PCR using specific primers. […]
Total RNA was extracted with TRIzol reagent (Invitrogen, Grand Island, NY, USA) according to the manufacturer’s instructions, and reverse transcription was performed as previously. […] Semi-quantitative RT-PCR was performed using β-actin as an internal control to normalize gene expression for the PCR templates. The PCR products were analyzed by electrophoresis on a 1.5% agarose gel containing goldview (5 μL/100 mL), and the amplified bands were visualized and photographed using JS-680B Gel Documentation and Analysis System (Shanghai Peiqing Science and Technology Co., Ltd., Shanghai, China). The size of the amplified fragments was determined by comparison with a standard DNA marker.

HepG2 cells [6] = assay: HepG2 cell viability, MTT, 6 h and 12 h; format: cell-based, human
Experimental: To determine the effects of 1 on the viability of HepG2 cell, the cells were cultured with 1 at different concentrations for 6 h and 12 h, and cell viability was measured using MTT assay.
Figure 2 Effect of 1 on cell viability of HepG2 cells. HepG2 cells were treated with the various concentrations of 1 for 6 and 12 h, and cell viability was measured using the MTT assay. The values are presented as means ± SD (n = 5).
as §2

HepG2 cells [7] = assay: Apoptosis morphology, acridine orange and Hoechst 33342 staining; format: cell-based, human; details: 2.5 and 2.75 μg/mL for 8 h; AO and Hoechst 33342 staining
Text: The induction of apoptosis in cancer cells has emerged as an exciting possibility for the development of selective cancer therapies. Apoptosis is characterized by distinct morphological features such as cell shrinkage, loss of contact with neighboring cells, formation of cytoplastic vacuoles, chromatin condensation, nuclear-membrane blebbing, oligonucleosomal DNA fragmentation, and finally breakdown of the cell into smaller units (apoptotic bodies). To further characterize the anticancer activity of 1, disorganization of the nucleus with chromatin changes in HepG2 cells treated with 1 at the concentration of 2.5 and 2.75 μg/mL for 8 h was characterized using acridine orange (OA) and Hoechst 33342 staining under fluorescence microscope.
HepG2 cells were seeded at 1 × 10^5 cells/mL into 24-well plates and then incubated at 37 °C in a humidified atmosphere with 5% CO2. After 24 h, the cells were treated with 1 at the final concentrations of 0, 2.5 and 2.75 μg/mL for 8 h. After washed twice with PBS, cells were stained with 100 μL acridine orange (AO) solution (10 μg/mL) or Hoechst 33342 solution (5 μg/mL) for 30 min, and then visualized by fluorescence microscope (Olympus, Tokyo, Japan) with 488 nm stimulation and 500–520 nm emission or 350 nm stimulation and 460 nm emission, respectively.

[8] = no difference among concentrations at 2 h

COC1C(O)C(CO)OC(OC2C(O)C(CO)OC(OC3C(C)OC(OC4C(OC5CCC6(C)C7=CC(O)C89C(=O)OC(C)(CCCC(C)C)C8(O)CCC9(C)C7CCC6C5(C)C)OCC(OS(=O)(=O)O)C4O)C(O)C3O)C2O)C1O.[Na+] (stereo not shown) [Echinoside A (1), Echinoside A]
IC50 [1]: 1860 nM | IC50 (μg/mL) HepG2 [2]: 1.50 ± 0.08 µg/mL | IC50 (μg/mL) K562 [3]: 1.61 ± 0.11 µg/mL | IC50 (μg/mL) HL-7702 ([4]; MTT assay, normal hepatocytes, means ± SD (n = 3)): 3.12 ± 0.65 µg/mL | Ratio (HL-7702/HepG2) [4]: 2.08 | Ratio (HL-7702/HepG2) ([4]; listed as 1): more than 2 | expression level of Caspase-8 mRNA [5, 8]: significantly up-regulated | expression level of Caspase-9 mRNA [5, 8]: significantly up-regulated | expression level of Caspase-3 mRNA ([5]; time- and dose-dependent): markedly up-regulated | cell viability of HepG2 cells at 2.25 μg/mL (HepG2 cells [6]; 2.25 μg/mL): hardly influenced cell viability | cell viability of HepG2 cells at 3 μg/mL (HepG2 cells [6]; 3 μg/mL): completely inhibited | effective concentration range for inhibiting survival of HepG2 cells (HepG2 cells [6]; MTT): 2.25−3 μg/mL | apoptosis in HepG2 cells (morphology) (HepG2 cells [7]): could induce apoptosis
